# How the values were obtained:
# [1] = target: T1, IAPP-induced lipid membrane leakage (Homo sapiens, UniProt P10997); assay: Fluorescein-based liposome leakage assay; type: biochemical
# T1 construct: IAPP is a 37 residue neuropancreatic hormone peptide; purchased Anaspec (Fremont, Calif.)
# T1 sequence (P10997 34-70 limits assumed): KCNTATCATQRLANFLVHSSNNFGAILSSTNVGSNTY
# From the text: Colocalization of IAPP at the mitochondrial membrane and the subsequent membrane poration is considered to be one of the potential contributors to β-cell toxicity. Therefore, a liposome leakage assay could serve as a surrogate marker for IAPP induced cytotoxicity (see Last, N. B.; Miranker, A. D. Proc. Natl. Acad. Sci. U.S.A. 2013, 110, 6382-6387; and Last, N. B.; Rhoades, E.; Miranker, A. D. Proc. Natl. Acad. Sci. U.S.A. 2011, 108, 9460-9465). A previously reported fluorescein-based liposome leakage assay was employed to test the effect of ADH-101 on membrane associated α-helical intermediates of IAPP. Briefly, fluorescein-dextran conjugate (MW=70 kDa) was encapsulated in unilamaller extruded lipid vesicles (DOPG:DOPC, 3:7, d=100 nm). The size of fluorescein-dextran conjugate allows it to stay inside the lipid vesicles during IAPP mediated membrane poration. The leakage kinetics was probed by the quenching of fluorescence using a fluorescent quencher, DPX (p-xylene-bis-pyridinium […]). The kinetic profiles of leakage are single exponential with a decrease in fluorescence as a function of time. The leakage reaction was initiated by introducing 200 μM liposome into a solution of 4 μM IAPP and 6 mM of DPX. The introduction of the excess ionic concentration by DPX was counterbalanced by adjusting the buffer concentration. The kinetics of the leakage mediated by IAPP yielded a single exponential profile with a leakage rate of 7.3±1.1×10^−3 s^−1 (FIG. 5A).
# The kinetics of liposome leakage induced by IAPP was monitored on QuantaMaster C-61 fluorescence spectrometer (Photon Technology International, Edison, N.J.) at 25° C. […] The stock solution of IAPP used in the measurements was kept in water at a concentration of 1 mM. The stock solution of water soluble quencher, DPX (p-xylene-bis-pyridinium bromide) was prepared in buffer (100 mM KCl, 50 mM NaPi, pH 7.4) at a concentration of 100 mM. The small molecules used in the leakage assay were dissolved in DMSO with a concentration range of 10-20 mM. The final concentration of dye encapsulating liposome, DPX, human IAPP, and small molecules were 200, 6000, 4, and 4 μM respectively. The final buffer concentration was corrected using higher concentration of buffer to keep the osmolality balanced. […] To determine the leakage rate constant, first the fluorescence was normalized and corrected by subtracting it from normalized fluorescence of control reaction. The corrected fluorescence was fit using equation given below (using Origin 9.1). All the experiments were performed in triplicate and the error values presented are standard deviations. a*exp(−b*x)+c (2) a=amplitude from 100% unleaked to 0% leaked c=final fraction of unleaked liposome y=change in fluorescence b=leakage rate constant
# [2] = tested on: IAPP mediated cytotoxicity in Rat insulinoma cells (RIN-m); assay: Cell viability (CellTiter Blue), IAPP-mediated cytotoxicity; type: cell-based; details: 6 μM IAPP, 48 h, IAPP alone ~68%
# Method: For cell toxicity assays, Rat insulinoma cells (RIN-m) were as they are considered to be a good model for pancreatic β-cells (see Huang, C.; Lin, C.; Haataja, L., Gurlo, T., Butler, A. E., Rizza, R. A., and Butler, P. C. Diabetes, 2007, 56, 2016-2027). Rat insulinoma RIN-m cells (ATCC, Manassas, Va.) were cultured in RPMI medium supplemented with 10% fetal bovine serum, 1% penicillin/streptomycin, […] sodium pyruvate, and […] β-mercaptoethanol (Life Technologies, Carlsbad, Calif.) at 37° C. and 5% CO2. Upon reaching ˜95% confluence, cells were washed with phosphate buffered saline (VWR, Radnor, Pa.), split using 0.25% Trypsin-EDTA (Life Technologies), and plated in clear 96-well plates (Corning, Glenview, Ill.) for cell viability assays.
# Cell viability was measured using the CellTiter Blue (CTB, Promega, Madison, Wis.) fluorescence-based assay. Cells were plated at a density of 20,000 cells per well in 96 well plates. After 48 h of incubation at 37° C. and 5% CO2, cells were washed with 100 μL of PBS. […] Fluorescence of the dye was measured on a FlexStation3 microplate reader (Molecular Devices, Sunnyvale, Calif.). […] Percent viability was calculated as per the following equation: % Viability=100*[(<S>−<P>)/(<N>−<P>)]
# Where <S>, <P>, and <N> are the average fluorescence intensities of the sample, positive control, and negative control, respectively.
# [3] = target: T2, islet amyloid polypeptide (IAPP) (Homo sapiens, UniProt P10997); assay: PICUP SDS-PAGE silver staining of IAPP oligomerization; type: biochemical; details: 15 μM IAPP, equimolar ratio, up to 300 min
# T2 construct: IAPP is a 37 residue neuropancreatic hormone peptide; purchased Anaspec (Fremont, Calif.)
# T2 sequence (P10997 34-70 limits assumed): T1 sequence (P10997 34-70 limits assumed)
# Method: The effect of ADH-101 on the oligomerization of IAPP was evaluated using performance photo-induced cross-linking of unmodified proteins (PICUP) SDS-PAGE-silver staining as described in Ono, K.; Condron, M. M.; Teplow, D. B. Proc. Natl. Acad. Sci. U.S.A. 2009, 106, 14745-14750 (FIG. 2E). IAPP was incubated in a buffer in the presence and absence of ADH-101 at an equimolar ratio, and the solutions were then treated with the cross-linking agent at various time intervals (FIG. 2E). IAPP forms oligomers of varying sizes as a function of time (FIG. 2E, Lane i-iv). […] Without wishing to be bound by any theory, it is postulated that ADH-101 forms a complex with monomeric IAPP and abolishes the oligomerization of IAPP.
smiles,measurement,setting,value
CCOC(=O)c1cc(NC(=O)c2cc(NC(=O)c3cc([N+](=O)[O-])cn3CC(C)C)cn2CC(C)C)cn1CCC(=O)O [ADH-101],leakage rate slower than the control reaction (IAPP only),"[1]; 4 μM IAPP, 4 μM compound, 200 μM liposome",~3.5 times
same,effect on the integrity of the liposomes,"[1]; ADH-101 alone, 4 μM, no IAPP",did not have any effect
same,cell viability,[2]; ratio 1:1 (IAPP:ADH-101),100%
same,cell viability,[2]; ratio 1:2 (IAPP:ADH-101),100%
same,IAPP oligomerization (PICUP),[3],completely inhibits the formation of large aggregates

# Source: patent US11124479B2, “Oligopyrroles as antagonists of islet amyloid polypeptide oligomerization” (New York University, priority 2017, dated 2021)
